Data published in patent publication US8343925B2, “Composition for improving brain function and method for improving brain function” (Calpis Co., Ltd., priority 2009, dated 2013).

Key:
[1] = target: angiotensin-converting enzyme (ACE) (Homo sapiens, UniProt P12821); settings: cited from earlier work
blood pressure = settings: oral administration; cited from earlier work
[2] = test system: increase in blood pressure due to cold stress; settings: oral administration; cited from earlier work
[3] = test system: scopolamine-induced amnesia; assay: Y-shaped maze test of spontaneous alternation behavior, scopolamine-induced amnesia; format: in vivo; settings: male ddY mice, scopolamine 1 mg/kg s.c. 30 min before test
Experimental: Male mice (n=15) of the ddY strain (approximately 7-week old) were used, and they took food and water ad lib. Test substances used were 9.0 mg/kg weight of Ile-Pro-Pro. The test substances were administered to the mice once orally 60 minutes before the execution of a Y-shaped maze test for evaluation of spontaneous alternation behavior. Further, 30 minutes before the execution of the Y-shaped maze test, 1 mg/kg weight of scopolamine was subcutaneously administered on the backs of the mice in order to induce brain dysfunction (dysmnesia and/or cognitive impairment) in the mice. In the Y-shaped maze test, a Y-shaped maze was used as an experimental device, in which the length of each arm was 40 cm, the height of the wall was 12 cm, the width of the floor was 3 cm, and the width of the upper part was 10 cm, and three arms were connected to each other at an angle of 120 degrees. Each of the mice was placed at the tip of any one of the arms of the Y-shaped maze, and then let go to freely explore in the maze for 8 minutes. The sequence of the arms each of the mice entered was recorded. The number of entries by each of the mice for each of the arms during the measurement time was counted to be the total number of entries. […] The percentage of spontaneous alternation behavior was calculated by dividing the number of spontaneous alternation behavior by a number obtained by subtracting 2 from the total number of entries, and multiplying a resultant number by 100. […] The measured values were expressed in the form of mean±standard error for each group. A significant difference between the control group and the scopolamine control group was calculated using Student's t-test.
Male mice (n=15) of the ddY strain (approximately 7-week old) were used, and they took food and water ad lib. […] The arms each of the mice entered were sequentially recorded. The number of entries by each of the mice for each of the arms during the measurement time was counted to be the total number of entries. […]

[4] = 10 mg/kg weight once orally 60 min before test

Chain of angiotensin-converting enzyme (ACE) (P12821 30-1306, species assumed): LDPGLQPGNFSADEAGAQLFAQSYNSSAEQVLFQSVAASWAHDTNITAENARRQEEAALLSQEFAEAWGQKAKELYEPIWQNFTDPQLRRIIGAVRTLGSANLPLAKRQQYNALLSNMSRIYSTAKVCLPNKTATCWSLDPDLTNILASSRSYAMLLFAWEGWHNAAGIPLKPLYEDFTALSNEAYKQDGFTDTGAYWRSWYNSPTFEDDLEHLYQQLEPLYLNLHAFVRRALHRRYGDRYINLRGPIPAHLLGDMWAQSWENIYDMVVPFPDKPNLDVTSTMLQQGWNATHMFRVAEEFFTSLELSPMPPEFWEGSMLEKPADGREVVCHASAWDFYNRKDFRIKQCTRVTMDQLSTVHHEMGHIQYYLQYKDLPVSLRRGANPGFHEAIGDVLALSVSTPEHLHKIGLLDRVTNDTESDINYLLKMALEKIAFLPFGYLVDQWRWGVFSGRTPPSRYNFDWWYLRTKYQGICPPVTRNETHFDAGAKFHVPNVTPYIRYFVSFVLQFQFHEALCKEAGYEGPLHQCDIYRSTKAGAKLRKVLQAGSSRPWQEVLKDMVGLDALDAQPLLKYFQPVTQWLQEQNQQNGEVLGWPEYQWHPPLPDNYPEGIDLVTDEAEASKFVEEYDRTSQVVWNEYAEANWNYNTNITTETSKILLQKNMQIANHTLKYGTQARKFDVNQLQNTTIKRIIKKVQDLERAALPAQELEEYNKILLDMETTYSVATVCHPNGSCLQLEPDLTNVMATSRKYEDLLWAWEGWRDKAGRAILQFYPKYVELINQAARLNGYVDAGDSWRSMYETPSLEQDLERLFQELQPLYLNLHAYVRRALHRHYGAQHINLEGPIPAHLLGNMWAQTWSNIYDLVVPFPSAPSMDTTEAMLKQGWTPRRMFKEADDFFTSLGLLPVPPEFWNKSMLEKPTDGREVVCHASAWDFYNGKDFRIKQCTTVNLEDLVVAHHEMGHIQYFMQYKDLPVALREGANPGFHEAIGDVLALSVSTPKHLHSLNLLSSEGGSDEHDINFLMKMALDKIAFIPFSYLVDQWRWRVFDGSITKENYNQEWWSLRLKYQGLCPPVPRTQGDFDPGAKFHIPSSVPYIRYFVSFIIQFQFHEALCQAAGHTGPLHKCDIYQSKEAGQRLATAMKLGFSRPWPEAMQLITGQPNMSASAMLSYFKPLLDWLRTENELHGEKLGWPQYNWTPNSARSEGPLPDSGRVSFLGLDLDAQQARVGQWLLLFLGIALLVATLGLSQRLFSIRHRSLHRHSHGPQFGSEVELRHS

Substance	ACE inhibitory activity [1]	hypotensive activity (blood pressure)	inhibitory activities on increase in blood pressure due to cold stress or on decrease in markers of immune function [2]	prophylactic activity against amnesia (percentage of spontaneous alternation behavior) ([3]; 9.0 mg/kg weight once orally 60 min before test)	prophylactic activity against amnesia (percentage of spontaneous alternation behavior) [3, 4]
Ile-Pro-Pro	has an ACE inhibitory activity	hypotensive lowering activity	exhibit inhibitory activities on increase in blood pressure due to cold stress	had a prophylactic activity against amnesia	–
Leu-Pro-Pro	–	–	–	–	had a prophylactic activity against amnesia
Ser-Pro-Pro	–	–	–	–	had a prophylactic activity against amnesia
Val-Pro-Pro [Val-Pro-Pro (VPP), reference compound]	–	–	exhibit inhibitory activities on increase in blood pressure due to cold stress	–	–
